Earlier results as cited in patent US20210260003A9 (AZIENDE CHIMICHE RIUNITE ANGELINI FRANCESCO A.C.R.A.F. …, priority 2017, published 2021).

What was measured:
[1] = orally administered

Compound | peak concentration (time) [1] | solubility in water
CC(C(=O)O)c1cccc(C(=O)c2ccccc2)c1 (centres unmarked) [ketoprofen] | 0.5 to 2 h | –
hydroxypropyl-β-cyclodextrin | – | 600 mg/mL
